ChEMBL document CHEMBL1201862, “PubChem BioAssay data set” (2004)
Active and inactive are the calls of the source.

Experiments:
[1] = P. falciparum late gametocyte killing, dose response, luminescence (AID 1117278); format: functional, cell-based;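 also: gametocytes exposed to compound for 24 hours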
[2] = Jurkat T cell cytotoxicity, dose response, cytotoxicity control for P. falciparum gametocyte viability project, luminescence (AID 1117277); format: functional, cell-based;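 also: potency reflects loss of cellular ATP meaning fewer viable cells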
Vero [3] = experiment: host cell cytotoxicity of antiviral hits, dose response, cytotoxicity control for West Nile virus antiviral project, secondary assay (AID 1650); format: functional; conditions: Chlorocebus sabaeus
[4] = inhibitors of intracellular T. cruzi replication, confirmation, NIH3T3 host cells, beta-gal luminescence (AID 2044); format: functional, cell-based;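 also: intracellular parasites grown in NIH/3T3 mouse fibroblasts as host cells; luminescent beta-galactosidase reporter signal from transgenic T. cruzi replicating inside host cells; inhibitors lower the luminescence signal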
[5] = cytotoxicity toward NIH3T3 fibroblasts, dose response, counter-screen, cell-based, ATP luminescence, mouse fibroblasts (AID 2010); format: functional;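 also: cells exposed to compound for about 90 hours before reading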
Vero [6] = experiment: West Nile virus antiviral activity, cell-based, CPE readout (AID 1621); format: functional; conditions: Chlorocebus sabaeus
[7] = P. falciparum Dd2 growth inhibitors, dose response, SYBR Green, cherry-picked samples (AID 1159567); format: functional, cell-based
[8] = HepG2 cell cytotoxicity, dose response, cytotoxicity control, cherry-picked samples (AID 1159577); format: functional, cell-based
[9] = target: Luciferin 4-monooxygenase (Photinus pyralis, UniProt P08659); experiment: firefly luciferase enzyme inhibitors, dose response, biochemical, luminescence (AID 1891)
[10] = Luminescence Cell-Based Dose Confirmation HTS to Identify Inhibitors of Platelet Dense Granule Release. [Related pubchem assays: 1663 (Primary HTS), 1678 (Summary of Project)]; format: functional
[11] = microbe, parasite or virus in culture; format: functional; conditions: Mycobacterium tuberculosis
[12] = THP-1 cell cytotoxicity, dose response, cytotoxicity control for non-replicating M. tuberculosis project (AID 489025); format: functional
[13] = Vero E6 cell cytotoxicity, dose response, cytotoxicity control for non-replicating M. tuberculosis project, secondary assay (AID 492998); format: functional, VeroE6; conditions: Vero C1008
cells = format: functional
[14] = AlphaScreen signal interference compounds, dose response, artefact control for ARNT-TACC3 interaction inhibitor project, biochemical, luminescence, cherry-pick (AID 651705); format: functional;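 also: AlphaScreen bead proximity signal that flags compounds interfering with the detection technology; potency reflects signal decrease which marks the compound as an assay artifact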
[15] = ARNT/TACC3 interaction disruptors, potency, confirmation, biochemical, AlphaScreen, cherry-picked samples (AID 651703); format: functional, Homo sapiens;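 also: His-tagged ARNT PAS-B domain paired with GST-TACC3 E629A dimer coactivator fragment; potency of inhibitors that break up the complex and lower AlphaScreen signal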
[16] = Artemis endonuclease inhibitor potency, dose response, biochemical, fluorescence intensity (AID 720701); format: functional;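 also: Artemis endonuclease enzyme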
[17] = HeLa 2N DNA content increase, dose response, cell-based, IC50 (AID 1117349); format: functional
[18] = HeLa 4N DNA content increase, dose response, cell-based, IC50 (AID 1117351); format: functional
[19] = target: Solute carrier family 12 member 2/member 5 (Homo sapiens, UniProt P55011+Q9H2X9); experiment: KCC2 and NKCC1 inhibition by rubidium flux, cell-based, NKCC1 counter-screen (AID 1734); format: functional, HEK293
P388/ADR = experiment: cells; format: functional; conditions: Mus musculus
SN12K1 = experiment: cells; format: functional; conditions: Homo sapiens
P388 = experiment: cells; format: functional; conditions: Mus musculus
[20] = half-maximal inhibitory concentration for glucagon-like peptide-1 release, STC-1 cell line, dose-response (AID 1117345); format: functional, cell-based
[21] = Glucagon-like peptide 1 release potency, NCI-H716 cell line, dose-response, half-maximal inhibitory concentration (AID 1117344); format: functional, cell-based
[22] = Luminescent dose response cell-based high throughput screening assay for inhibitors of the Janus kinase 2 mutant JAK2V617F. [Related pubchem assays: 1446 (Primary screen.), 1521 (Confirmation assay.), 1486 (Counter screen.)]; format: functional
[23] = system: Streptococcus sp. 'group A'; experiment: growth inhibition of control SK(-) GAS strain, dose response, counter-screen for streptokinase expression inhibitor project, luminescence, kanamycin, BacTiterGlo, confirmation (AID 1900); format: functional, organism-based
[24] = target: T1, Heat shock factor protein 1 (Mus musculus, UniProt P38532); experiment: inhibition of MG132-induced HSE-luciferase signal, confirmation, cell-based, NIH3T3, luminescence, dose retest (AID 2382); format: functional;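 also: NIH3T3 fibroblasts with HSF1-driven luciferase reporter stressed by proteasome inhibitor MG132; luminescence from HSF1-driven luciferase expression after 8 hours of MG132 stress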
T1 sequence (P38532 whole entry): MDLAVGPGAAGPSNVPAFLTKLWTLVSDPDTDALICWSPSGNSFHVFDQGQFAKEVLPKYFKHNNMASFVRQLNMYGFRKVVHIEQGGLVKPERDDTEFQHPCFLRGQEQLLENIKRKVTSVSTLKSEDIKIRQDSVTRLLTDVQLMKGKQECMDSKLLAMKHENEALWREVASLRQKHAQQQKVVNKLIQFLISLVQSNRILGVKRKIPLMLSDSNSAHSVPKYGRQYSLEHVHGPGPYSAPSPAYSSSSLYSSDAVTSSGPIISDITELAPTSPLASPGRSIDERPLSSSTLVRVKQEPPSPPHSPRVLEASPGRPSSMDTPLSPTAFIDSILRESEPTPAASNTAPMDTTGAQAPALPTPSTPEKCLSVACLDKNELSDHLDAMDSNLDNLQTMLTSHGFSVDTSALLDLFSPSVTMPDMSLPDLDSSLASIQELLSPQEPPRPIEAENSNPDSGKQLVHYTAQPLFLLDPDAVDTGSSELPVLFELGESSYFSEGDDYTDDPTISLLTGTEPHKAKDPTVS

Streptokinase A = target: T2, Streptokinase A (Streptococcus pyogenes serotype M1, UniProt P10520); experiment: S. pyogenes streptokinase expression inhibitors, potency, dose response, plasminogen activation absorbance, OD405 (AID 1914); format: functional, Streptococcus pyogenes M1 GAS;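 also: secreted streptokinase activity via plasminogen activation per viability signal from cell pellet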
T2 sequence (P10520 whole entry): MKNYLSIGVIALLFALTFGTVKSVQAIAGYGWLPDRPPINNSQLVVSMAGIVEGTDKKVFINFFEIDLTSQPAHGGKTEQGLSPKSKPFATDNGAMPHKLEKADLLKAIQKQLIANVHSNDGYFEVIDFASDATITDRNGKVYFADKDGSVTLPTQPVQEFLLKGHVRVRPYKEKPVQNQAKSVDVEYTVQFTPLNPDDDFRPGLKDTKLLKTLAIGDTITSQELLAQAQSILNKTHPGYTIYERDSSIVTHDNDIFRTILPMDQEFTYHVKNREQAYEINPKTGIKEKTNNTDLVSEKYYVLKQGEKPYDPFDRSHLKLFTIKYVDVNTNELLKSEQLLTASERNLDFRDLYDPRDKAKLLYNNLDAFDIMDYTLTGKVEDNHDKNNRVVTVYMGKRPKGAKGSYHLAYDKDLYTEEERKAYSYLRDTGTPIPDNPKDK

Streptococcus = experiment: Group A Streptococcus viability loss, dose response, counter-screen for streptokinase expression inhibitor project, luminescence, BacTiterGlo (AID 1915); format: functional, organism-based;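 also: potency for reduction of bacterial viability or growth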
[25] = target: T3, Replicative DNA helicase DnaB (Mycobacterium tuberculosis, UniProt P9WMR3); experiment: DnaB intein splicing inhibitors, dose response, biochemical, cell-free fluorescence (AID 449749); format: functional
T3 sequence (P9WMR3 whole entry): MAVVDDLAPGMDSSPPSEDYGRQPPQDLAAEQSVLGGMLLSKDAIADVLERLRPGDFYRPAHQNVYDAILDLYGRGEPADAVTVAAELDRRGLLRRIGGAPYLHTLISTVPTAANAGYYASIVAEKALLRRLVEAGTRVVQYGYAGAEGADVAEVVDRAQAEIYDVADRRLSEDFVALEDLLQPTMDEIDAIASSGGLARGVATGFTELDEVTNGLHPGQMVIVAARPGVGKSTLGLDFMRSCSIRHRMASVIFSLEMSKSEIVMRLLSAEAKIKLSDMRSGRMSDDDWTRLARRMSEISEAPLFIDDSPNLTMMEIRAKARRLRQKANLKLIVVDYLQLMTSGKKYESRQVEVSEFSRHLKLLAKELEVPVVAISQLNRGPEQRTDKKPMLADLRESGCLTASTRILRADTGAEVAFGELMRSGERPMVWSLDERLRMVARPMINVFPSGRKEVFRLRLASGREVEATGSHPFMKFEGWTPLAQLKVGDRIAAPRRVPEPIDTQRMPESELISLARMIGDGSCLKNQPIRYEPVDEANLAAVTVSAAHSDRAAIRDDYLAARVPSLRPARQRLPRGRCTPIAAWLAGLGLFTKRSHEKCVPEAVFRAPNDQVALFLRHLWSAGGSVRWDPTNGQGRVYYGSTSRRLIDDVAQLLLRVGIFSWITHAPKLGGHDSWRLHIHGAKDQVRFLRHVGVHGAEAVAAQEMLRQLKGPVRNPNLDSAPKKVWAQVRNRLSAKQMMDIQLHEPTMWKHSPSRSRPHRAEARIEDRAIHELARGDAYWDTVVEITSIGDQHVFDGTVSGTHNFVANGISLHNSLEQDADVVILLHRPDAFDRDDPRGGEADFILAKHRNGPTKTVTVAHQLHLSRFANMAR

Protein RecA = target: T4, Protein RecA (Mycobacterium tuberculosis, UniProt P9WHJ3); experiment: Fluorescence Cell-Free Homogeneous Dose Retest to Identify Inhibitors of RecA-Intein Splicing Activity. [Related pubchem assays (depositor defined):AID2097, AID2223, AID489010, AID492950]; format: functional
T4 sequence (P9WHJ3 whole entry): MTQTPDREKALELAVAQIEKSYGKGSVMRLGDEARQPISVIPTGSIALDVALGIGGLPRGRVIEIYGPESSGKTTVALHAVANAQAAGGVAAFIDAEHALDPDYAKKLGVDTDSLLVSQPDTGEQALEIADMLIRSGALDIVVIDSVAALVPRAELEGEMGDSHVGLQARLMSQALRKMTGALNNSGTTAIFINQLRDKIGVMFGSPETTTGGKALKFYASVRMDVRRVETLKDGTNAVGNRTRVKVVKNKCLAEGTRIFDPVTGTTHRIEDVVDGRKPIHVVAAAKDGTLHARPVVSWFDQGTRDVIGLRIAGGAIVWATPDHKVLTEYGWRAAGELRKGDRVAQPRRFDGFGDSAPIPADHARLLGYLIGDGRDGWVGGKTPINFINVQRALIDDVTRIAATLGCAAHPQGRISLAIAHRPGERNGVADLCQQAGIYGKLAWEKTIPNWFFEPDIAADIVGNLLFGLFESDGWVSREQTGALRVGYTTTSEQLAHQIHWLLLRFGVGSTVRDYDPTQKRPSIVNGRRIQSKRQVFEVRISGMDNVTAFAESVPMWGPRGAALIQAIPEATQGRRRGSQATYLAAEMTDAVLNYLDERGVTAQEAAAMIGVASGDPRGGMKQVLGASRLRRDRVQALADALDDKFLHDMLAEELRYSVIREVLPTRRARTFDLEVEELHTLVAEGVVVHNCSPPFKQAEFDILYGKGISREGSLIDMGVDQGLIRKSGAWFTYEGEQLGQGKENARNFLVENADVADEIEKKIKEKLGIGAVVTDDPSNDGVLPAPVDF

Chain of Luciferin 4-monooxygenase (P08659 whole entry): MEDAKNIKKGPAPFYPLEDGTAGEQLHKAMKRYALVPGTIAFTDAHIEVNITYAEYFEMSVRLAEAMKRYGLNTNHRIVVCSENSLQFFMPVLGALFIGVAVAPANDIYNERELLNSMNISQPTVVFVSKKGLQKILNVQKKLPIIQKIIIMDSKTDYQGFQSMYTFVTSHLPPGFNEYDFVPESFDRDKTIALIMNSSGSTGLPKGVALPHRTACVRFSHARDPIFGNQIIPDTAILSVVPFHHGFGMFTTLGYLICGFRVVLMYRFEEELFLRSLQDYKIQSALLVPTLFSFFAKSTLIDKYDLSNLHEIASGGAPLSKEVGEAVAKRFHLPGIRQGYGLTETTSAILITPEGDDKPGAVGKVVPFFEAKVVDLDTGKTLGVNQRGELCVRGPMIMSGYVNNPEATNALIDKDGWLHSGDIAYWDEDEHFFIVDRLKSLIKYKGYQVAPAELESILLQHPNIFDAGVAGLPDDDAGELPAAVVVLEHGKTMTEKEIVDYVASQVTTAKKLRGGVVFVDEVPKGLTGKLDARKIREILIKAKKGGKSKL

CC(C)c1cc(C(=O)O)c2cnn(C(C)C)c2n1
IC50 [1]: > 109 µM (inactive)
IC50 [2]: > 83.2 µM (inactive)

CN1CCc2ccccc2C1Cc1ccccc1NC(=O)c1sc2ccccc2c1Cl (configuration not stated)
CC50 (Vero [3]): > 100 µM (active)
EC50 [4]: 2.73 µM (active)
EC50 [5]: > 60 µM (not active)
IC50 (Vero [6]): 41.2 µM (active)

O=C(C1CC1)N1CC(=O)N2[C@H](C1)[C@@H](c1ccc(C#CCc3ccccc3)cc1)[C@@H]2CO
AC50 [7]: 9.21 µM (active)
AC50 [8]: 35.5 µM (active)

c1ccc(-c2nc3c(ccc4ccccc43)[nH]2)nc1
EC50 [9]: 4.22 µM (active)
EC50 [10]: 27.1 µM (active)
CC50 [11]: > 40 µM (active)
CC50 [12]: 38.9 µM (active)
CC50 [13]: > 20 µM (active)
IC50 (cells): 18.9 µM (active)
AC50 [14]: 119 µM (active)
AC50 [15]: 79 µM (active)
IC50 [16]: 14.4 µM (active)

CCCOc1ccc2[nH]c(NC(=O)OC)nc2c1 [OXIBENDAZOLE]
IC50 [17]: 62.2 nM (active)
IC50 [18]: 56.7 nM (active)

CC(C)c1onc(C(=O)N2CCN(Cc3ccccc3)CC2)c1[N+](=O)[O-]
IC50 [19]: 1.5 µM (active)

CCCCCCCCCCCCCCCCCCOCC(O)CO (configuration not stated) [BATILOL]
GI50 (P388/ADR): 9.82 µM (inactive)
GI50 (SN12K1): 22.5 µM (inactive)
GI50 (P388): 6.65 µM (inactive)
IC50 [20]: > 40 µM (inactive)
IC50 [21]: > 40 µM (inactive)

Cc1cccc(CS(=O)(=O)c2nnc([C@H](Cc3ccccc3)NC(=O)OC(C)(C)C)o2)c1
IC50 [22]: 870 nM (active)
EC50 [23]: 8.25 µM (active)
EC50 [24]: 2.19 µM (active)
EC50 (Streptokinase A): 1.5 µM (active)
EC50 (Streptococcus): 10.2 µM (active)
AC50 [25]: 2.68 µM (active)
EC50 (Protein RecA): 5.42 µM (active)
